From publication PMC5754411 (Cancer Chemotherapy and Pharmacology, 2017)
Like-named read-outs stand apart in the source and are kept apart here.

Legend:
[1] = design: method as in PMID 28303528; settings: humans, cited from earlier work
clinical = settings: plasma
Protocol: Signed and dated written informed consent was obtained from each patient before participation in the study and before the performance of any procedures. After informed consent was obtained, eligible participants were given the choice to be admitted to the clinical research unit on day − 1 or on day 1. A summary of the study design can be found in Fig. 1. […] Subjects continued fasting until 2 h after the start of the IV infusion, at which time a non-standardised light meal was served. The radiolabelled dose contained approximately 100 nCi (3.7 kBq) radioactivity and was administered into one arm of the subject; the contralateral arm was used for pharmacokinetic sampling and clinical laboratory blood draws. The syringe for IV drug administration was connected to a Perfusor Space Infusion Pump (B. Braun), which was set to administer 7 mL in 15 min. Blood samples were taken pre-dose and at 1, 1.5, 2 (just before start of IV infusion), 2.125 (halfway through the IV infusion), 2.25 (just before end of infusion), 2.33, 2.66, 3, 4, 6, and 12 h. Sampling was done on each morning of days 2, 3, 4, 5, 7, 9, 11, 13, 15, and 22. Plasma was divided in two sets: one set was sent to Xceleron Inc. (Germantown, MD, USA) for the determination of plasma concentrations of the ^14C-microtracer by AMS, and the other set was stored at the Antoni van Leeuwenhoek Hospital until it received pharmacokinetic analysis at the Good Laboratory Practice–licensed laboratory of the pharmacy. Plasma was separated from blood by centrifugation (3,000 rpm, 15 min, 4 °C) and was stored frozen at ≤ − 70 °C in polypropylene tubes before and after analysis. […] Vital signs assessments, haematology assessment, and blood chemistry assessments were done frequently to make sure that the patients were still in sufficient condition to remain on treatment. […] The study was approved by the local independent ethics committee and was conducted in accordance with local regulations, the Declaration of Helsinki, and International Conference on Harmonisation Good Clinical Practice Guidelines.
In brief, separation was carried out using an HPLC Acquity I Class pump (Waters, Milford, MA, USA) supplied with a SunFire C18 column (50 mm × 2.1 mm, 5 µm, Waters). Gradient elution was applied using 20 mM ammonium acetate in water (mobile phase A) and 0.1% formic acid in acetonitrile-methanol (50:50, v/v; mobile phase B). Each batch of experimental samples was run against freshly prepared calibration standards. Replicate quality control samples at three concentrations were stored and analysed alongside study samples. The analytical range was from 1 to 500 ng/mL.
Total ^14C-radioactivity concentrations in plasma samples were determined using AMS. Plasma samples were directly aliquoted into tubes containing copper oxide powder (CuO). The samples were graphitised and analysed by a Single Stage Accelerator Mass Spectrometer (SSAMS) 250 kV system (National Electrostatics Corp., Middleton, WI, USA). […] Samples were analysed by an Agilent 1200 HPLC system (Agilent Technologies, Palo Alto, CA, USA) equipped with a wavelength UV detector set to 254 nm. Separation was achieved using a Phenomenex Kinetex 2.6 µ biphenyl column (100 Å, 100 × 3.0 mm). Mobile phase A and B consisted of 20 mM ammonium acetate in water and 0.1% formic acid in acetonitrile–methanol (50:50, v/v), respectively. Column oven temperature was set at 40 °C, and run-time was 18 min. […] The fractions were graphitised and analysed by SSAMS. Each batch of experimental samples was run against freshly prepared calibration standards at seven concentrations in duplicates. Replicate quality control samples at three concentrations were stored and also analysed alongside study samples. Finally, F po was calculated as the ratio of the dose-normalised AUC of the oral dose to the IV dose.

[2] = Sprague–Dawley rats; ref data not published; cited from earlier work
[3] = beagle dogs; ref data not published; cited from earlier work
[4] = cited from earlier work

bioavailability (clinical; human, oral, 300 mg) | AUC(0-inf) (clinical; human, po, 300 mg) | AUC(0-t) (clinical; human, po, 300 mg) | Cmax (clinical; human, po, 300 mg) | t max (clinical; human, po, 300 mg, t max, oral 300 mg niraparib, n = 6, median and range) | half-life (clinical; human, po, 300 mg, t ½, oral 300 mg niraparib, n = 6, sampling 22 days) | t max (clinical; oral 300 mg niraparib, n = 6, median and range) | Compound | Presence of metabolite in circulation [1] | Dose recovered as the parent compound in faeces ([1]; oral radiolabelled niraparib) | Total orally administered dose recovered in excreta ([1]; urine and faeces, radiolabelled niraparib) | F po [2] | F po [3] | t max ([4]; previous phase I dose-escalation study, range 1.5–4.1 h) | t ½ ([4]; previous study, shorter sampling period)
– | – | – | – | – | – | – | O=C(O)c1cccc2cn(-c3ccc(C4CCCNC4)cc3)nc12 (centres unmarked) [M1] | substantially present in circulation | – | – | – | – | – | –
72.7% | 47400 ng·h/mL | 46900 ng·h/mL | 1270 ng/mL | 4 h | ~95.6 h | 4.01 (3.07–6.03) h | NC(=O)c1cccc2cn(-c3ccc([C@@H]4CCCNC4)cc3)nc12 [niraparib] | – | approximately 20% | approximately 90% | 27% | 57% | around 3.1 h | 36.2 h
